Columns and labels:
[1] = set-up: method as in PMID 38234602; details: cited from earlier work
[2] = from cited IC50 values
[3] = system: membranes of human lung carcinoma (cancer) cells; assay: EPR study of TEMPO partitioning into membranes of human lung carcinoma cells; format: physicochemical; details: for 2Aiso aqueous: TEMPO in aqueous phase
Description: (§1) The fresh lung tissue (about 2-3 h after the surgery) was washed thoroughly with PBS buffer to remove blood. Afterward, the tissue was cut into small pieces and then homogenized in PBS buffer using a glass homogenizer. The homogenized lung tissue was washed three times with PBS solution and then centrifuged (Eppendorf 5418) to remove the cell debris. Obtained cell suspension was used for the experiments. The intactness of the cells was assessed by Zeta-potential measurements as shown previously.
(§2) EPR measurements were performed using a Bruker ELEXSYS E580 spectrometer at X-band frequency with variable temperature accessory. The aqueous suspension of lung carcinoma and neighboring normal cells with TEMPO were placed into Pyrex capillary tubes with an I.D. of 0.6 mm. EPR spectra were recorded with the following instrument parameters: scan width: 100 Gauss; sweep time: 40 s; modulation amplitude: 1 Gauss; modulation frequency: 100 kHz; microwave power: 0.47 mW; and time constant: 0.1 s. Before the measurements, the samples were kept for 5 minutes at each temperature to ensure that the sample temperature matched the set temperatures.
(§3) The difference in the nitrogen splitting constant of TEMPO in hydrophobic (cell membrane) and hydrophilic (aqueous) environments is the reason for the split of the third component. Consequently, the EPR spectra of TEMPO incubated with cells in an aqueous environment reflect the partitioning of TEMPO in the lipid fraction of the cell membrane and aqueous environments. To resolve the spectral components, the EPR spectra of TEMPO were analyzed using the LabVIEW program developed by Christian Altenbach (https://sites.google.com/site/altenbach/), using the spectral simulation code written in FORTRAN [34]. Along with computer simulations, rotational correlation times of TEMPO were also calculated using the following formula that uses the peak heights and line widths of the first derivative EPR spectra:
(§4) where W0 is the width (in Gauss) of the central component, while h0 and h-1 are the heights of the central and high-magnetic field components of the first derivative EPR spectrum. As mentioned above, the EPR spectra resulting from the partitioning of TEMPO in the system are composite and consist of two components. Therefore, the formula above was applied after the decomposition of the EPR spectra into lipophilic and hydrophilic components. Because of the close similarity of the correlation times obtained from the software and the formula, data are shown only as deduced from the software.
(§5) Double integrals of the EPR spectral components (Imbrand Iaqrepresent TEMPO confined in the membrane and aqueous environments, respectively) were employed to calculate partition coefficients with the following formula: K = Imbr/(Imbr+ Iaq). To characterize the EPR spectral components, the membrane and aqueous environments were described as lipophylic and hydrophilic, respectively. Apparently, a partition coefficient depends on both the concentration of the lipid fractions and the number of lung cells in the aqueous system. For an accurate comparison of the data related to the partition coefficients, the same amount (by weight) of cancer and normal cell suspensions were used. Both cancer and normal cell suspensions were incubated with TEMPO (150 mM total concentration) for about 30 min. The experimental conditions used in this study allow us to compare the partition coefficients of the normal and cancer cells directly.
(§6) The temperature dependence of the equilibrium constant K (partition coefficient in our case) was used to calculate the free energy changes required to transfer TEMPO molecules from the aqueous to the lipid phase of the membranes of the healthy and cancer cells.
(§7) Similarly, the temperature dependence of the rotational correlation times of TEMPO was used to determine the activation energies for rotational motions in the membranes of the healthy and cancer cells.

[4] = read-out: IC50 (cytotoxicity); cited from earlier work
[5] = system: membranes of human lung normal (healthy) cells; assay: EPR study of TEMPO partitioning into membranes of healthy (normal) human lung cells; format: physicochemical; details: for DGK (free energy change to transfer TEMPO from aqueous to lipid phase of the membrane) / DGt (∆Gτ, activation energy of rotational motions of TEMPO in the membrane) / 2Aiso aqueous / 2Aiso membrane: healthy cells; for DGK (free energy change to transfer TEMPO from aqueous to lipid phase of the membrane) / DGt (∆Gτ, activation energy of rotational motions of TEMPO in the membrane): 283–317 K; for 2Aiso aqueous: TEMPO in aqueous phase; for 2Aiso membrane: TEMPO in membrane
Description: as §1, §2, §3, §4, §5, §6, §7

[6] = system: various cell lines related to breast, colon, liver, and ovary cancer; set-up: method as in PMID 9607601; details: range over cell lines related to breast, read-out: IC50 as an antiproliferative agent; cited from earlier work
HCT116 cell lines = system: HCT116 cell lines; set-up: method as in PMID 9607601; details: cited from earlier work
[7] = cancer cells, pH 6.2, 283–317 K
[8] = cancer cells, pH 7.3, 283–317 K

## CC1(C)CCCC(C)(C)N1[O] [TEMPO, 2,2,6,6-tetramethylpiperidine-1-oxyl]
[1]
  partitioning into liposomes of cancer cell lipids compared to liposomes of normal cell lipids: significantly enhanced partitioning
[2]
  IC50 of TEMPO relative to TEMPOL (fold lower): about 4 fold
[3]; cancer cell membranes, acidic transition from pH 7.3 to pH 6.2
  increase of free energy change of TEMPO transfer: ~42%
[3]; cancer cell membranes, room temperature, pH 7.3
  rotational correlation time of TEMPO in membrane: about 490 ps
[3]; cancer cells at pH 7.3, free energy values compared for pH 6.2 and 7.3
  less energy required for TEMPO partitioning: 30%
[3]; [7]
  DGK (free energy change to transfer TEMPO from aqueous to lipid phase of the membrane): 1.7 ± 0.1 kcal/mol
  DGt (∆Gτ, activation energy of rotational motions of TEMPO in the membrane): 2.6 ± 0.3 kcal/mol
[3]; cancer cells, pH 6.2
  2Aiso aqueous: 34.5 Gauss
[3]; [8]
  DGK (free energy change to transfer TEMPO from aqueous to lipid phase of the membrane): 1.2 ± 0.1 kcal/mol
  DGt (∆Gτ, activation energy of rotational motions of TEMPO in the membrane): 2.1 ± 0.2 kcal/mol
[3]; cancer cells, pH 7.3
  2Aiso aqueous: 34.5 Gauss
[3]; cancer cells, pH 7.3, TEMPO in membrane
  2Aiso membrane: 31.5 Gauss
[3]; cancer vs neighboring normal cells, 283–317 K, pH 7.3 and 6.2
  TEMPO partition coefficient, cancer cells compared with healthy cells: significantly higher
[4]
  IC50: 2700 µM
[5]; healthy cell membranes, acidic transition from pH 7.3 to pH 6.2
  increase of free energy change of TEMPO transfer: about 19%
[5]; healthy cell membranes, room temperature, pH 7.3
  rotational correlation time of TEMPO in membrane: ~617 ps
[5]; pH 6.2
  DGK (free energy change to transfer TEMPO from aqueous to lipid phase of the membrane): 3.7 ± 0.3 kcal/mol
  DGt (∆Gτ, activation energy of rotational motions of TEMPO in the membrane): 3.8 ± 0.3 kcal/mol
  2Aiso aqueous: 34.4 Gauss
  2Aiso membrane: 31.9 Gauss
[5]; pH 7.3
  DGK (free energy change to transfer TEMPO from aqueous to lipid phase of the membrane): 3.1 ± 0.1 kcal/mol
  DGt (∆Gτ, activation energy of rotational motions of TEMPO in the membrane): 1.9 ± 0.2 kcal/mol
  2Aiso aqueous: 34.5 Gauss
  2Aiso membrane: 32.4 Gauss
[5]; membranes of healthy and cancer cells, pH 6.2 and 7.3
  2Aiso values of TEMPO incorporated into the membranes of the cells (interval): 31.4−32.4 Gauss

## CC1(C)CC(OC(=O)c2ccccc2)CC(C)(C)N1[O] [TEMPO-benzoate]
[1]
  partitioning in liposome studies: significantly enhanced partitioning

## CC1(C)CC(O)CC(C)(C)N1[O] [TEMPOL, 4-hydroxy-TEMPO]
[4]
  IC50: 11400 µM
[6]
  IC50: 210 to 1070 µM

## COc1cccc2c1C(=O)c1c(O)c3c(c(O)c1C2=O)C[C@@](O)(C(=O)CO)C[C@@H]3O[C@H]1C[C@H](N)[C@H](O)[C@H](C)O1 [doxorubicin]
HCT116 cell lines
  fold decrease of doxorubicin IC50 by TEMPOL pretreatment: ~7 fold
